Assay results: patent publication US20110055943A1, “NOVEL THERAPEUTIC TARGETS IN INFLAMMATORY BOWEL DISEASE” (SALIX PHARMACEUTICALS, LTD., priority 2007, published 2011)

How the values were obtained:
[1] = test system: CYP3A; assay: Pharmacokinetics of MDZ in hPXR mice pretreated with RIFax; details: MDZ 2.5 mg/kg oral; for AUC0-90 min / Cmax / Tmax: serum; for AUC0-90 min ratio RIFax/Cont / Cmax ratio RIFax/Cont / Tmax ratio RIFax/Cont: hPXR mice, RIFax pretreated vs control
Experimental: Blood samples were collected from suborbital veins using heparinized tubes at pre-dose, 5, 10, 20, 30, 60, and 90 min after administration of MDZ. Serum was separated by centrifugation at 8,000 g for 10 min. For MDZ and 1′-OH-MDZ extraction, 50 μl of serum was mixed with 150 μl of phosphate-buffered saline, 200 μl of ethyl acetate, and 200 μl of methyl t-butyl ether. The mixture was centrifuged at 3,000 rpm for 5 min at 4° C. The organic layer was then transferred to a new tube, dried with N2, and reconstituted in 100 μl of 70% aqueous methanol and 30% H2O containing 0.1% formic acid. […] Pharmacokinetic parameters for MDZ and 1′-OH-MDZ were estimated from the plasma concentration-time data by a non-compartmental approach using WinNonlin (Pharsight, Mountain View, Calif.). The area under the serum concentration-time curve (AUC0-90 min) was calculated by the trapezoidal rule. The maximum concentration in serum (Cmax) and its corresponding time (Tmax) were obtained from the original data.

[2] = test system: MRP2; details: rat hepatocytes; cited from earlier work
[3] = test system: MRP2; details: mouse PXR ligand; cited from earlier work
[4] = target: T1, PXR (Mus musculus, UniProt O54915); details: dextran sulfate sodium (DSS)-induced BD mouse model; cited from earlier work
T1 construct: host or cells: mice (DSS colitis model)
T1 sequence (O54915 1-431): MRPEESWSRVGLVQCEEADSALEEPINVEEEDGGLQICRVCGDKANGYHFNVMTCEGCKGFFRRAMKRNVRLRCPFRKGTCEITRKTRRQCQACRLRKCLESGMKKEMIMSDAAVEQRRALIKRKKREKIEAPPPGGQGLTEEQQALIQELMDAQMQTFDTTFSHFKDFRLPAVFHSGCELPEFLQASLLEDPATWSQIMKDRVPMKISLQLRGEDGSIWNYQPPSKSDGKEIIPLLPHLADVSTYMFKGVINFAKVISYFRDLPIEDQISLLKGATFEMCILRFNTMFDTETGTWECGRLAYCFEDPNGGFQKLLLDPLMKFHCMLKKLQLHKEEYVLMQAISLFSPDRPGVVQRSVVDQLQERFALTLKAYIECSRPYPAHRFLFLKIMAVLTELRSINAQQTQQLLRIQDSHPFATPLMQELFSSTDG

[5] = in vivo; type: in vivo; details: mouse, in vivo, po, 10 mg/kg
Experimental: (§1) The maximum concentration in serum (Cmax) was obtained from the original data. […] Intestinal contents were weighted, and homogenized in methanol (100 mg/ml). The homogenate was centrifuged at 14,000 rpm for 10 min at 4° C.
(§2) The mass spectrometer was operated in the turbo ion spray mode with positive ion detection. The turbo ion spray temperature was maintained at 300° C., and a voltage of 4.8 kV was applied to the sprayer needle. N2 was used as the turbo ion spray and nebulizing gas.

[6] = Intestinal tract distribution of RIF and RIFax in mice (intestinal contents, LC-MS/MS); type: in vivo; details: mouse, in vivo, po, 10 mg/kg
Experimental: as §1, §2

[7] = Cont: hPXR mice without RIFax pretreatment
[8] = hPXR mice pretreated with RIFax 10 mg/kg/day for 3 days

Compound | AUC0-90 min [1, 7] | Cmax [1, 7] | Tmax [1, 7] | AUC0-90 min [1, 8] | Cmax [1, 8] | Tmax [1, 8] | AUC0-90 min ratio RIFax/Cont [1] | Cmax ratio RIFax/Cont [1] | Tmax ratio RIFax/Cont [1] | MRP2 activation [2] | MRP2 induction [3] | DSS-induced colitis [4] | Cmax [5] | concentration in the small intestine (content) [6]
OCc1ncc2n1-c1ccc(Cl)cc1C(c1ccccc1F)=NC2 [1′-OH-MDZ, 1′-Hydroxymidazolam] | 32.4 ± 3.0 µmol·min/L | 562 ± 4.9 nM | 25.0 ± 7.1 min | 36.5 ± 4.2 µmol·min/L | 823 ± 55.2 nM | 7.5 ± 3.5 min | 1.1 | 1.5 | 0.3 |  |  |  |  | 
Cc1ncc2n1-c1ccc(Cl)cc1C(c1ccccc1F)=NC2 [MDZ, midazolam] | 8.0 ± 0.4 µmol·min/L | 477 ± 40.3 nM | 10.0 ± 0.0 min | 8.9 ± 0.7 µmol·min/L | 383 ± 19.1 nM | 12.5 ± 10.6 min | 1.1 | 0.8 | 1.3 |  |  |  |  | 
CC(=O)[C@H]1[C@H](C#N)C[C@H]2[C@@H]3CC=C4C[C@@H](O)CC[C@]4(C)[C@H]3CC[C@@]21C [PCN] |  |  |  |  |  |  |  |  |  | activated | not significantly induced | significantly prevented |  | 
CO[C@H]1/C=C/O[C@@]2(C)Oc3c(C)c(O)c4c(O)c(c(/C=N/N5CCN(C)CC5)c(O)c4c3C2=O)NC(=O)/C(C)=C\C=C\[C@H](C)[C@H](O)[C@@H](C)[C@@H](O)[C@@H](C)[C@H](OC(C)=O)[C@@H]1C [RIF, 3-(4-Methylpiperazinyliminomethyl)rifamycin SV] |  |  |  |  |  |  |  |  |  |  |  |  | 2750 nM | below 20 μg/g
